Assay results from US20060122279A1, “Hydrophobic polyamine amides as potent lipopolysaccharide sequestrants” (priority 2004, published 2006).
Values joined by “and” are separate entries in the source; they are usually repeats but may differ in a detail not shown here. Equal entries are not always repeated. Marks after values point to notes of the source that are not given here.

Test system: CF-1 mice
Assay: Mouse lethality model of endotoxic shock (D-galactosamine sensitized, LPS challenge)
Type: in vivo
Conditions: for time window of protection, in words: 200 ng/mouse LPS
Method: Based on the results of the displacement assays, NO and cytokine inhibition data, 8 is elected for detailed evaluation in animal experiments. […] In all experiments reported herein, a supralethal dose of 200 ng per mouse, in a final volume of 0.2 ml saline is used. The dose-response of protection afforded by 8 is depicted in Table 4. Previous studies with labile spermine conjugates such as DOSPER^37 had shown the window of protection to be very short, a 15 minute window of protection. Compound 8, with its greater anticipated hydrolytic stability, is examined to see if it affords a more extended time-window of protection. 200 μg of 8 in a final volume of 0.2 ml injections are administered intraperitoneally at times of −6, −4, −2, 0, +1, and +2 relative to time-zero, the time at which all mice are challenged with 200 ng/mouse LPS injections. […] Testing to see if in this treatment regime, which is characterized by a slow, gradual systemic absorption from the site of injection, a longer duration of protection would be observed is carried out. Lethality is once again assessed 24 hours following the final injection.
Female, outbred, 9- to 11-week-old CF-1 mice (Charles River, Wilmington, Mass.) weighing 22-28 g are used as described elsewhere.^37 Upon arrival, the mice are allowed to acclimatize for a week prior to experimentation, housed 5 per cage in a controlled environment at the AALAC-accredited University of Kansas Animal Care Facility, and allowed access to mouse chow and water ad libitum. […] In experiments designed to test dose-response effects of the acyl-spermines in affording protection against LPS-induced lethality, mice receive graded doses of compound diluted in saline, i.p., in one flank, immediately before a supralethal (200 ng) LPS challenge, which is administered as a separate i.p. injection into the other flank. In experiments in which the temporal window of protection is to be examined, a fixed dose of 200 μg/mouse of compound is administered at various times, before, or after supralethal (200 ng/mouse) LPS challenge. Lethality is determined at 24 h post LPS challenge.

In the case of `CCCCCCCCCCCCCCCCCC(=O)NCCCCC(N)C(=O)NCCCNCCCCNCCCN` [Compound 8, D-Lys-ε-(stearoyl)-N^1-spermine], the “No. of live mice/total no. of mice tested” value (10 μg/mouse i.p., immediately before 200 ng/mouse LPS, lethality at 24 h) is reported as 0/5, the “No. of live mice/total no. of mice tested” value (50 μg/mouse i.p., immediately before 200 ng/mouse LPS, lethality at 24 h) is reported as 1/5 and the “No. of live mice/total no. of mice tested” value (100 μg/mouse i.p., immediately before 200 ng/mouse LPS, lethality at 24 h) is reported as 4/5*. The “time window of protection, in words” value (200 μg i.p.) was “significant protection up to 6 h prior to LPS challenge”, the “No. of live mice/total number of mice tested” value (200 μg intraperitoneally at 0 h relative to LPS (200 ng/mouse)) was 4/5* and the “No. of live mice/total number of mice tested” value (200 μg intraperitoneally at +1 h relative to LPS (200 ng/mouse)) was 0/5*. The “No. of live mice/total number of mice tested” value (200 μg intraperitoneally at +2 h relative to LPS (200 ng/mouse)) was 2/5, the “No. of live mice/total number of mice tested” value (200 μg intraperitoneally at −2 h relative to LPS (200 ng/mouse)) was 4/5* and the “No. of live mice/total number of mice tested” value (200 μg intraperitoneally at −4 h relative to LPS (200 ng/mouse)) was 4/5*. The “No. of live mice/total number of mice tested” value (200 μg intraperitoneally at −6 h relative to LPS (200 ng/mouse)) was 3/5, the “time window of protection, in words” value (200 μg subcutaneous) was “significant protection even when the compound is administered 16 h ahead of LPS challenge” and the “No. of live mice/total no. of mice tested” value (200 μg subcutaneously at 0 h relative to LPS (200 ng/mouse)) was 1/5. The “No. of live mice/total no. of mice tested” value (200 μg subcutaneously at +2 h relative to LPS (200 ng/mouse)) was 1/5, the “No. of live mice/total no. of mice tested” value (200 μg subcutaneously at −4 h relative to LPS (200 ng/mouse)) was 5/5* and the “No. of live mice/total no. of mice tested” value (200 μg subcutaneously at −8 h relative to LPS (200 ng/mouse)) was 3 of the 5 and 3/5. The “No. of live mice/total no. of mice tested” value (200 μg subcutaneously at −12 h relative to LPS (200 ng/mouse)) was 3 of the 5 and 3/5, the “No. of live mice/total no. of mice tested” value (200 μg subcutaneously at −16 h relative to LPS (200 ng/mouse)) was 3 of the 5 and 3/5 and the “No. of live mice/total no. of mice tested” value (200 μg subcutaneously at −24 h relative to LPS (200 ng/mouse)) was “Two of the 5 and 2/5”. For the same compound, the “No. of live mice/total no. of mice tested” value (200 μg/mouse i.p., immediately before 200 ng/mouse LPS, lethality at 24 h) was 5/5*.
